Source: the NIST ThermoML archive (doi:10.1021/acs.jced.7b00106)
Values joined by “and” are separate entries in the source; they are usually repeats but may differ in a detail not shown here. Equal entries are not always repeated.

Conditions: Fluid (supercritical or subcritical phases), Hot wire method

FC(F)(F)/C=C/Cl [(E)-1-chloro-3,3,3-trifluoroprop-1-ene]
Conditions	thermal conductivity
451.94 K, 2166 kPa	0.02385 W/m/K
451.94 K, 5208 kPa	0.04623 W/m/K
451.95 K, 2165 kPa	0.02394 W/m/K
451.98 K, 987 kPa	0.02333 W/m/K
451.98 K, 990 kPa	0.0233 W/m/K
451.98 K, 3273 kPa	0.02726 W/m/K
451.99 K, 3272 kPa	0.02725 W/m/K
452.01 K, 1670 kPa	0.02346 W/m/K
452.01 K, 1671 kPa	0.0235 W/m/K
452.01 K, 2616 kPa	0.02474 W/m/K
452.01 K, 2617 kPa	0.02483 W/m/K
452.03 K, 5206 kPa	0.0467 W/m/K
452.03 K, 5207 kPa	0.04676 W/m/K
452.06 K, 2990 kPa	0.026 W/m/K
452.06 K, 2991 kPa	0.02595 W/m/K
452.09 K, 2165 kPa	0.02407 W/m/K and 0.024 W/m/K
452.12 K, 5207 kPa	0.0469 W/m/K
452.13 K, 5206 kPa	0.04663 W/m/K
452.14 K, 7293 kPa	0.04964 W/m/K
452.14 K, 7296 kPa	0.04969 W/m/K
452.15 K, 987 kPa	0.02338 W/m/K
452.16 K, 988 kPa	0.02337 W/m/K
452.16 K, 2617 kPa	0.02488 W/m/K
452.17 K, 1671 kPa	0.02356 W/m/K
452.17 K, 2617 kPa	0.02487 W/m/K
452.19 K, 5579 kPa	0.04728 W/m/K
452.2 K, 2991 kPa	0.02606 W/m/K
452.2 K, 5578 kPa	0.0472 W/m/K
452.21 K, 2990 kPa	0.026 W/m/K
452.23 K, 5207 kPa	0.04713 W/m/K
452.24 K, 5208 kPa	0.0472 W/m/K
452.25 K, 2165 kPa	0.024 W/m/K
452.29 K, 5577 kPa	0.04741 W/m/K
452.3 K, 5578 kPa	0.04745 W/m/K
452.31 K, 7293 kPa	0.04973 W/m/K
452.32 K, 7296 kPa	0.0498 W/m/K
452.33 K, 988 kPa	0.0233 W/m/K
452.33 K, 2615 kPa	0.02494 W/m/K
452.33 K, 2618 kPa	0.02493 W/m/K
452.33 K, 6080 kPa	0.04801 W/m/K
452.33 K, 6081 kPa	0.04806 W/m/K
452.34 K, 988 kPa	0.02333 W/m/K
452.34 K, 1671 kPa	0.02345 W/m/K
452.35 K, 1672 kPa	0.02348 W/m/K
452.36 K, 22580 kPa	0.06316 W/m/K
452.41 K, 5578 kPa	0.04763 W/m/K
452.42 K, 2166 kPa	0.02413 W/m/K
452.42 K, 2167 kPa	0.02408 W/m/K
452.42 K, 5577 kPa	0.04756 W/m/K
452.43 K, 12588 kPa	0.05554 W/m/K
452.43 K, 12589 kPa	0.05558 W/m/K
452.46 K, 18530 kPa	0.06032 W/m/K
452.46 K, 18535 kPa	0.06035 W/m/K
452.48 K, 7729 kPa	0.0503 W/m/K
452.48 K, 7733 kPa	0.05033 W/m/K
452.49 K, 10507 kPa	0.05349 W/m/K
452.5 K, 7296 kPa	0.04992 W/m/K
452.5 K, 7299 kPa	0.04984 W/m/K
452.51 K, 6079 kPa	0.04861 W/m/K
452.51 K, 6081 kPa	0.04828 W/m/K
452.51 K, 15249 kPa	0.05785 W/m/K
452.52 K, 10513 kPa	0.05353 W/m/K
452.52 K, 15256 kPa	0.05787 W/m/K
452.52 K, 22575 kPa	0.06312 W/m/K
452.52 K, 22580 kPa	0.06313 W/m/K
452.53 K, 989 kPa	0.02342 W/m/K
452.53 K, 5576 kPa	0.04776 W/m/K
452.53 K, 5577 kPa	0.0478 W/m/K
452.53 K, 6779 kPa	0.0491 W/m/K
452.53 K, 6780 kPa	0.0491 W/m/K
452.54 K, 985 kPa	0.02339 W/m/K
452.54 K, 1671 kPa	0.02355 W/m/K
452.54 K, 1672 kPa	0.02352 W/m/K
452.58 K, 8954 kPa	0.0518 W/m/K
452.58 K, 8958 kPa	0.05186 W/m/K
452.61 K, 12577 kPa	0.05553 W/m/K
452.61 K, 12585 kPa	0.05555 W/m/K
452.61 K, 18524 kPa	0.06031 W/m/K
452.63 K, 18535 kPa	0.06055 W/m/K
452.65 K, 5576 kPa	0.04794 W/m/K
452.65 K, 5578 kPa	0.04801 W/m/K
452.67 K, 7732 kPa	0.0504 W/m/K
452.67 K, 7733 kPa	0.05035 W/m/K
452.68 K, 10507 kPa	0.05353 W/m/K
452.68 K, 10512 kPa	0.05353 W/m/K
452.69 K, 6081 kPa	0.04841 W/m/K
452.69 K, 7300 kPa	0.05001 W/m/K
452.69 K, 7301 kPa	0.04996 W/m/K
452.69 K, 15244 kPa	0.05785 W/m/K
452.69 K, 22569 kPa	0.06311 W/m/K
452.69 K, 22574 kPa	0.06307 W/m/K
452.7 K, 6080 kPa	0.04844 W/m/K
452.71 K, 6780 kPa	0.04921 W/m/K
452.72 K, 6782 kPa	0.04926 W/m/K
452.75 K, 990 kPa	0.02344 W/m/K
452.76 K, 988 kPa	0.02344 W/m/K
452.77 K, 8956 kPa	0.05187 W/m/K and 0.05189 W/m/K
452.79 K, 18524 kPa	0.0603 W/m/K
452.79 K, 18533 kPa	0.06034 W/m/K
452.8 K, 12582 kPa	0.05559 W/m/K
452.86 K, 7730 kPa	0.05046 W/m/K
452.86 K, 7733 kPa	0.05047 W/m/K
452.87 K, 10511 kPa	0.05358 W/m/K
452.87 K, 22562 kPa	0.06294 W/m/K
452.88 K, 10507 kPa	0.05361 W/m/K
452.88 K, 15241 kPa	0.05786 W/m/K
452.88 K, 15242 kPa	0.05782 W/m/K
452.88 K, 22559 kPa	0.06307 W/m/K
452.89 K, 6080 kPa	0.04865 W/m/K
452.89 K, 6081 kPa	0.04866 W/m/K
452.9 K, 7299 kPa	0.0501 W/m/K
452.9 K, 7305 kPa	0.05013 W/m/K
452.91 K, 6780 kPa	0.04939 W/m/K
452.91 K, 6781 kPa	0.04936 W/m/K
452.96 K, 8959 kPa	0.05193 W/m/K
452.97 K, 8955 kPa	0.0519 W/m/K
452.98 K, 18519 kPa	0.06033 W/m/K
452.99 K, 12573 kPa	0.05553 W/m/K
452.99 K, 12587 kPa	0.05557 W/m/K
453.06 K, 7731 kPa	0.05059 W/m/K
453.06 K, 22554 kPa	0.06303 W/m/K
453.06 K, 22568 kPa	0.06306 W/m/K
453.07 K, 7733 kPa	0.05056 W/m/K
453.07 K, 10506 kPa	0.05359 W/m/K
453.07 K, 15242 kPa	0.05784 W/m/K
453.08 K, 10511 kPa	0.05377 W/m/K
453.08 K, 15250 kPa	0.05787 W/m/K
453.1 K, 6079 kPa	0.04859 W/m/K
453.12 K, 6779 kPa	0.0495 W/m/K
453.12 K, 6780 kPa	0.04953 W/m/K
453.17 K, 18517 kPa	0.06031 W/m/K
453.17 K, 18518 kPa	0.06033 W/m/K
453.18 K, 8956 kPa	0.05196 W/m/K
453.18 K, 8959 kPa	0.05204 W/m/K
453.2 K, 12578 kPa	0.05564 W/m/K
453.2 K, 12584 kPa	0.05564 W/m/K
453.27 K, 7731 kPa	0.05062 W/m/K
453.27 K, 10508 kPa	0.05365 W/m/K
453.28 K, 7728 kPa	0.05065 W/m/K
453.28 K, 10506 kPa	0.05366 W/m/K
453.28 K, 15236 kPa	0.05778 W/m/K
453.28 K, 15246 kPa	0.05788 W/m/K
453.33 K, 6776 kPa	0.0497 W/m/K
453.33 K, 6780 kPa	0.04971 W/m/K
453.39 K, 8959 kPa	0.05209 W/m/K
